# Experimental data: patent publication US9403823B2, “Protein kinase inhibitors” (ORIBASE PHARMA, priority 2012, dated 2016)
# Like-named read-outs stand apart in the source and are kept apart here. Marks after values point to notes of the source that are not given here.
# How the values were obtained:
# BRAF = molecular target: T1, BRAF (Homo sapiens, UniProt P15056); test: In vitro kinase assay (Z'-LYTE), BRAF; assay type: biochemical; conditions: read-out: % of inhibition of the kinase compared to the control
# T1 construct: purchased Invitrogen
# Summary of the method: (§1)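 Compounds at a single dose (100 nM; 10 μM for both ABL forms) were run in a fluorescence coupled-enzyme kinase format relying on differential protease sensitivity of phospho versus non-phospho peptide. Reaction progress was measured ratiometrically from the FRET pair.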
# EGFR (ErbB1) = molecular target: T2, EGFR (ErbB1) (Homo sapiens, UniProt P00533); test: In vitro kinase assay (Z'-LYTE), EGFR (ErbB1); assay type: biochemical; conditions: read-out: % of inhibition of the kinase compared to the control
# T2 construct: purchased Invitrogen
# Summary of the method: as §1
# EGFR (ErbB1) T790M L858R = molecular target: T3, EGFR (ErbB1) T790M L858R (Homo sapiens, UniProt P00533, L858R/T790M); test: In vitro kinase assay (Z'-LYTE), EGFR (ErbB1) T790M L858R; assay type: biochemical; conditions: read-out: % of inhibition of the kinase compared to the control
# T3 construct: purchased Invitrogen
# Summary of the method: as §1
# FGFR2 = molecular target: T4, FGFR2 (Homo sapiens, UniProt P21802); test: In vitro kinase assay (Z'-LYTE), FGFR2; assay type: biochemical; conditions: read-out: % of inhibition of the kinase compared to the control
# T4 construct: purchased Invitrogen
# Summary of the method: as §1
# KDR (VEGFR2) = molecular target: T5, KDR (VEGFR2) (Homo sapiens, UniProt P35968); test: In vitro kinase assay (Z'-LYTE), KDR (VEGFR2); assay type: biochemical; conditions: read-out: % of inhibition of the kinase compared to the control
# T5 construct: purchased Invitrogen
# Summary of the method: as §1
# PDGFRA (PDGFR alpha) = molecular target: T6, PDGFRA (PDGFR alpha) (Homo sapiens, UniProt P16234); test: In vitro kinase assay (Z'-LYTE), PDGFRA; assay type: biochemical; conditions: read-out: % of inhibition of the kinase compared to the control
# T6 construct: purchased Invitrogen
# Summary of the method: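 Single-point screening used 100 nM compound for VEGFR1 and PDGFRA, 10 μM for wild-type and T315I ABL. Activity was scored via Z'-LYTE emission ratio.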
# SRC = molecular target: T7, SRC (Homo sapiens, UniProt P12931); test: In vitro kinase assay (Z'-LYTE), SRC; assay type: biochemical; conditions: read-out: % of inhibition of the kinase compared to the control
# T7 construct: purchased Invitrogen
# Summary of the method: as §1
# ABL = molecular target: T8, ABL (Homo sapiens, UniProt P00519); test: In vitro kinase assay (Z'-LYTE), ABL; assay type: biochemical; conditions: read-out: % of inhibition of the kinase compared to the control
# T8 construct: purchased Invitrogen
# Description: (§2) 1) In Vitro Kinase Assays (Table 10 to Table 21)
# (§3) The inhibitory activity of the compounds on several kinases including BRAF, EGFR (ErbB1), EGFR (ErbB1) T790M L858R, FGFR2, KDR (VEGFR2), PDGFRA (PDGFR alpha), SRC and other was evaluated by Invitrogen using the Z′-LYTE® technology. Briefly, the Z′-LYTE® biochemical assay employs a fluorescence-based, coupled-enzyme format and is based on the differential sensitivity of phosphorylated and non-phosphorylated peptides to proteolytic cleavage. The peptide substrate is labeled with two fluorophores—one at each end—that make up a FRET pair. A ratiometric method, which calculates the ratio (the Emission Ratio) of donor emission to acceptor emission after excitation of the donor fluorophore at 400 nm, is used to quantitate reaction progress.
# (§4) The compounds are screened in 1% DMSO (final) in the well. For 10 point titrations, 3-fold serial dilutions are conducted from the starting concentration. All Peptide/Kinase Mixtures are diluted to a 2× working concentration in the appropriate Kinase Buffer. All ATP Solutions are diluted to a 4× working concentration in Kinase Buffer (50 mM HEPES pH 7.5, 0.01% BRIJ-35, 10 mM MgCl2, 1 mM EGTA). ATP Km apparent is previously determined using a Z′-LYTE® assay.
# (§5) Each compound was incubated at a concentration of 100 nM (excepted to test the activity against ABL and ABL T315I for which the compounds were incubated at a concentration of 10 μM) and the tables 10 to 21 summarize the results obtained showing the inhibitory power of a compound.
# ABL T315I = molecular target: T9, ABL T315I (Homo sapiens, UniProt P00519, T315I); test: In vitro kinase assay (Z'-LYTE), ABL T315I; assay type: biochemical; conditions: read-out: % of inhibition of the kinase compared to the control
# T9 construct: purchased Invitrogen
# Description: as §2, §3, §4, §5
# FGFR1 = molecular target: T10, FGFR1 (Homo sapiens, UniProt P11362); test: In vitro kinase assay (Z'-LYTE), FGFR1; assay type: biochemical; conditions: read-out: % of inhibition of the kinase compared to the control
# T10 construct: purchased Invitrogen
# Description: as §2, §3
# (§6) The compounds are screened in 1% DMSO (final) in the well. For 10 point titrations, 3-fold serial dilutions are conducted from the starting concentration. All Peptide/Kinase Mixtures are diluted to a 2× working concentration in the appropriate Kinase Buffer. All ATP Solutions are diluted to a 4× working concentration in Kinase Buffer (50 mM HEPES pH 7.5, 0.01% BRIJ-35, 10 mM MgCl2, 1 mM EGTA). ATP Km apparent is previously determined using a Z′-LYTE® assay. […]
# VEGFR1 = molecular target: T11, VEGFR1 (Homo sapiens, UniProt P17948); test: In vitro kinase assay (Z'-LYTE), VEGFR1; assay type: biochemical; conditions: read-out: % of inhibition of the kinase compared to the control
# T11 construct: purchased Invitrogen
# Description: as §2, §3, §6
# PDGFRB = molecular target: T12, PDGFRB (Homo sapiens, UniProt P09619); test: In vitro kinase assay (Z'-LYTE), PDGFRB; assay type: biochemical; conditions: read-out: % of inhibition of the kinase compared to the control
# T12 construct: purchased Invitrogen
# Description: as §2, §3, §6
# A549 cell line = test: In vitro cell proliferation assay (MTT), A549; assay type: cell-based; conditions: Homo sapiens, read-out: EC50, anti-proliferative activity
# Summary of the method: (§7)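 Duplicate wells of each line were exposed for 72 hr to 10 nM–3 μM compound. HRMEC were plated at 1×10^4 cells per well, cancer cells at 5×10^3.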
# BxPC-3 cell line = test: In vitro cell proliferation assay (MTT), BxPC-3; assay type: cell-based; conditions: Homo sapiens, read-out: EC50, anti-proliferative activity
# Description: (§8) 2) In Vitro Cell Proliferation Assays (Table 22 to Table 35)
# (§9) Cancer cell lines (5×10^3 cells per well) or HUVEC (1×10^4 cells per well) or HRMEC (1×10^4 cells per well) were distributed in 96-well plates and incubating in duplicate with escalating concentrations (10 nM to 3 μM) of compounds for 72 hr. Cell proliferation was measured using MTT (3[4,5-dimethylthiazol-2-yl]-2,5-diphenyltetrazolium bromide).
# HepG2 cell line = test: In vitro cell proliferation assay (MTT), HepG2; assay type: cell-based; conditions: Homo sapiens, HepG2, 72 h; read-out: EC50, anti-proliferative activity
# Summary of the method: as §7
# HuCCT1 cell line = test: In vitro cell proliferation assay (MTT), HuCCT1; assay type: cell-based; conditions: Homo sapiens, HuCCT-1, 72 h; read-out: EC50, anti-proliferative activity
# Summary of the method: as §7
# HuH6 Clone 5 cell line = test: In vitro cell proliferation assay (MTT), HuH6 Clone 5; assay type: cell-based; conditions: HUH-6-clone5, 72 h; read-out: EC50, anti-proliferative activity
# Summary of the method: as §7
# HuH7 cell line = test: In vitro cell proliferation assay (MTT), HuH7; assay type: cell-based; conditions: Homo sapiens, Huh-7, 72 h; read-out: EC50, anti-proliferative activity
# Summary of the method: as §7
# HT29 cell line = test: In vitro cell proliferation assay (MTT), HT29; assay type: cell-based; conditions: Homo sapiens, HT-29, 72 h; read-out: EC50, anti-proliferative activity
# Summary of the method: as §7
# H1975 cell line = test: In vitro cell proliferation assay (MTT), H1975; assay type: cell-based; conditions: Homo sapiens, NCI-H1975, 72 h; read-out: EC50, anti-proliferative activity
# Summary of the method: as §7
# HUVEC = test: In vitro cell proliferation assay (MTT), HUVEC; assay type: cell-based; conditions: Homo sapiens, 72 h, read-out: EC50, anti-proliferative activity
# Summary of the method: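 Anti-proliferative effects on human umbilical vein endothelial cells were assessed by an MTT (3[4,5-dimethylthiazol-2-yl]-2,5-diphenyltetrazolium bromide) readout. Cells (1×10^4 cells per well) in 96-well plates were incubated in duplicate for 72 hr with escalating test compound concentrations spanning 10 nM to 3 μM.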
# PC3 cell line = test: In vitro cell proliferation assay (MTT), PC3; assay type: cell-based; conditions: Homo sapiens, PC-3, 72 h; read-out: EC50, anti-proliferative activity
# Description: as §8, §9
# Caki-2 = test: In vitro cell proliferation assay (MTT), Caki-2; assay type: cell-based; conditions: Homo sapiens, CAKI-2, 72 h; read-out: EC50, anti-proliferative activity
# Description: as §8, §9
# MDA-MB-231 cell line = test: In vitro cell proliferation assay (MTT), MDA-MB-231; assay type: cell-based; conditions: Homo sapiens, MDA-MB-231, 72 h; read-out: EC50, anti-proliferative activity
# Summary of the method: as §7
# HeLa cell line = test: In vitro cell proliferation assay (MTT), HeLa; assay type: cell-based; conditions: Homo sapiens, 72 h, read-out: EC50, anti-proliferative activity
# Summary of the method: as §7
# HRMEC cells = test: In vitro cell proliferation assay (MTT), HRMEC; assay type: cell-based; conditions: 72 h, read-out: EC50, anti-proliferative activity
# Summary of the method: as §7
# HepG2 cells = test: Human hepatocellular carcinoma mouse model (HepG2 xenograft); assay type: in vivo, athymic nude male mice; conditions: 20 mg/kg q.d. per os for 15 consecutive days
# Description: 3) In Vivo Studies (Table 36)
# Human hepatocellular carcinoma mouse model was prepared by subcutaneously implanting HepG2 cells (1×10^7 cell/mL in sterile PBS), into the right flank of athymic nude male mice (HSD, 6-7 weeks old). When the tumor volume reached approximately 200 mm^3, mice were assigned randomly to either vehicle alone or ORB compounds treatment groups (six mice per group). Mice were treated with either vehicle (PEG400) or OR0720, OR0721, OR0811 (20 mg/kg q.d.; per os for 15 consecutive days).
# Tumor volumes in mm^3 were determined three times a week with a digital caliper and calculated using the following formula: Tumor Volume (mm)=length (mm)×width (mm)×width (mm)×½. Body weight was measured three times a week, and mice were observed daily for monitoring signs of stress to detect possible toxicities. One-way ANOVA was used for statistical comparisons. Data were analyzed with Prism 5.0 b (GraphPad Software) by one-way ANOVA with Bonferroni post hoc. Tumor Growth Inhibition (TGI) is calculated as the percent decrease of tumor growth at the end of the study in the ORB compounds treatment groups in comparison to the vehicle alone treatment group.
# T7 sequence (P12931 whole entry): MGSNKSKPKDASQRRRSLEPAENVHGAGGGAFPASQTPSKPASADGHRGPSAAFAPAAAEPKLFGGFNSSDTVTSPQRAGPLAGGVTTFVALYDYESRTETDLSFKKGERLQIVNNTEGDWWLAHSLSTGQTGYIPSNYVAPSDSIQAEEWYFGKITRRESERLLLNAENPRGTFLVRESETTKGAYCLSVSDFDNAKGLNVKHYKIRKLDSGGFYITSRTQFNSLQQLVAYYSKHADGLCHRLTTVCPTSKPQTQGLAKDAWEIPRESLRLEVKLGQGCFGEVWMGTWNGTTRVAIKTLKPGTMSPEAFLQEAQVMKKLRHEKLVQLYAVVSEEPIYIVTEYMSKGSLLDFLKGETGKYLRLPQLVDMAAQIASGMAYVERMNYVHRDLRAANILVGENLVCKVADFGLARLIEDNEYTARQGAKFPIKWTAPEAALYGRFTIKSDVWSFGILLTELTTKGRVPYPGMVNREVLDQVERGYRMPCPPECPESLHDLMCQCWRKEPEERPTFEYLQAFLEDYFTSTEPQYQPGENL
# T6 sequence (P16234 24-1089): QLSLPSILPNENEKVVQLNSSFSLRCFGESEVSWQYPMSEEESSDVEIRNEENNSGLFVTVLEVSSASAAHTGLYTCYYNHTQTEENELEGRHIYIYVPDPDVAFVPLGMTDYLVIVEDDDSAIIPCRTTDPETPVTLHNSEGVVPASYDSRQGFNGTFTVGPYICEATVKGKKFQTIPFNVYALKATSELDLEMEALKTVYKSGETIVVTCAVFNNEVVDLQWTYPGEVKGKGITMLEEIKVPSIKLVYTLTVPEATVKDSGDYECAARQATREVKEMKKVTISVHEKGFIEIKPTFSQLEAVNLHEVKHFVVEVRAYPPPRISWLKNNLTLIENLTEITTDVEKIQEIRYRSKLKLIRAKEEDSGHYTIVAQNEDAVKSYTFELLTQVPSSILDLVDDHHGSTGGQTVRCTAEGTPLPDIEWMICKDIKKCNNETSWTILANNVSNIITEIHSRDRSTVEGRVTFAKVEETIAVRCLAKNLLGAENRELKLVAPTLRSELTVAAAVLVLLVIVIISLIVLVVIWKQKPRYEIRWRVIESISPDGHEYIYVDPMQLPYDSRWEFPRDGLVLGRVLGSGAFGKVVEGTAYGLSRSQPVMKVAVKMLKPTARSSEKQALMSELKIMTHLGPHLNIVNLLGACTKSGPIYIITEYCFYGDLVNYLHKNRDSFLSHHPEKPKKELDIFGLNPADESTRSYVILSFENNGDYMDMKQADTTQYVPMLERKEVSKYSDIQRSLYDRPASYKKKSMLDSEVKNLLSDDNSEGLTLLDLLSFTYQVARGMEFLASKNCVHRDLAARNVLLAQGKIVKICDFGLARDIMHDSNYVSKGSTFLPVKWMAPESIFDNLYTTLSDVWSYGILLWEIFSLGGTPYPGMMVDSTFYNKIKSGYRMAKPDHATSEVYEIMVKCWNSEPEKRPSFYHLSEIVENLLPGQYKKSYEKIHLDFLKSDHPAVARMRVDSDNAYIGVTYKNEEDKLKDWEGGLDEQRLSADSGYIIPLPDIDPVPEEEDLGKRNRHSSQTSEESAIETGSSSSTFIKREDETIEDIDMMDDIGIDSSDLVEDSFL
# T4 sequence (P21802 22-821): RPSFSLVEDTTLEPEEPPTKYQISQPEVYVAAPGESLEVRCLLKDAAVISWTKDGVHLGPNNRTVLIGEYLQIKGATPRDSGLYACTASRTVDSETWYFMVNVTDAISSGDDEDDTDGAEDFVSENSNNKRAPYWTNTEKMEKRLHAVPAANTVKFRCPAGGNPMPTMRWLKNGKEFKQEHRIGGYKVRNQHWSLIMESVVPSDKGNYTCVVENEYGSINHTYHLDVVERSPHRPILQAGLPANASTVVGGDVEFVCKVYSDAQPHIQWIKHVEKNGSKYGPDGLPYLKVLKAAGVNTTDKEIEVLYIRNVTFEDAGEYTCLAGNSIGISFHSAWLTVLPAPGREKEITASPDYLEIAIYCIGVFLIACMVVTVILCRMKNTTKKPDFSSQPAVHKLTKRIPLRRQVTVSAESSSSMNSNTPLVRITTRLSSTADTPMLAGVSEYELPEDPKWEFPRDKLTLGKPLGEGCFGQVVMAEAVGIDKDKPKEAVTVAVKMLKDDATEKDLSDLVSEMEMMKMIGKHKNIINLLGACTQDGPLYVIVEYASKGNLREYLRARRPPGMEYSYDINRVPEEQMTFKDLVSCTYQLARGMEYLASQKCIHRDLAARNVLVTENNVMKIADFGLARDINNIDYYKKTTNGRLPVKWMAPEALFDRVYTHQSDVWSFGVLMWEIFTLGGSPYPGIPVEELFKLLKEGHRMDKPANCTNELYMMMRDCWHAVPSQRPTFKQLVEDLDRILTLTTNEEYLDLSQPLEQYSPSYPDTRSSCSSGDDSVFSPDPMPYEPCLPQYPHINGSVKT
# T3 sequence (P00533 25-1210 T790M/L858R): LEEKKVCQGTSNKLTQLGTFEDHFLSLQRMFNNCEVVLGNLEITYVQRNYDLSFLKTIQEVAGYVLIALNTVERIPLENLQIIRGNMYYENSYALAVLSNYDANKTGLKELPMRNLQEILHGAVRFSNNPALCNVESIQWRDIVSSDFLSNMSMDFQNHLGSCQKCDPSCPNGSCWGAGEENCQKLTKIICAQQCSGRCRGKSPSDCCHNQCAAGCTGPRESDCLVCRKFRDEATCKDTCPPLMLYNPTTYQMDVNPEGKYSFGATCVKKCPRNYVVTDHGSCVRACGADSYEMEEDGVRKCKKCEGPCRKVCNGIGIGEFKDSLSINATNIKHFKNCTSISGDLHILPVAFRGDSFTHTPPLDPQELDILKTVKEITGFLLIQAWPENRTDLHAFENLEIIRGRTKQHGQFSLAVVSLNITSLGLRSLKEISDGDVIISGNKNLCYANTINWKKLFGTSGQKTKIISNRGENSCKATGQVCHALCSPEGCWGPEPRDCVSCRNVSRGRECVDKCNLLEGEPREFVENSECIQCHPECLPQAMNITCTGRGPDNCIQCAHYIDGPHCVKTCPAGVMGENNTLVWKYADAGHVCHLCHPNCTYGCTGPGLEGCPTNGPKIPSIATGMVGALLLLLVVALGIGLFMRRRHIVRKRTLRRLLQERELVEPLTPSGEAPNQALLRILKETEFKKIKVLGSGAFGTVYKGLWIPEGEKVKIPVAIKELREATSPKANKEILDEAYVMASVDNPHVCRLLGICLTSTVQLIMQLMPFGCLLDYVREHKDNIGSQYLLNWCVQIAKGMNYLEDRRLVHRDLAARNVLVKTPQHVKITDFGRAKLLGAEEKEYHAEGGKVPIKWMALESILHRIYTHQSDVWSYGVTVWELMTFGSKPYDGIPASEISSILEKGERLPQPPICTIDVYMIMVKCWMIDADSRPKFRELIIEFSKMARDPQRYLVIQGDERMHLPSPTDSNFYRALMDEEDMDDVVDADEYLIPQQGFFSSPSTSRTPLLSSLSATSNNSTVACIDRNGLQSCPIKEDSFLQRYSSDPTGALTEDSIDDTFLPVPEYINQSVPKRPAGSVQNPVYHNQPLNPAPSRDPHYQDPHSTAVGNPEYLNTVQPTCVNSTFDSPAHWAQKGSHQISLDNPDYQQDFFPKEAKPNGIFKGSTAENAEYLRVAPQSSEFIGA
# T2 sequence (P00533 25-1210): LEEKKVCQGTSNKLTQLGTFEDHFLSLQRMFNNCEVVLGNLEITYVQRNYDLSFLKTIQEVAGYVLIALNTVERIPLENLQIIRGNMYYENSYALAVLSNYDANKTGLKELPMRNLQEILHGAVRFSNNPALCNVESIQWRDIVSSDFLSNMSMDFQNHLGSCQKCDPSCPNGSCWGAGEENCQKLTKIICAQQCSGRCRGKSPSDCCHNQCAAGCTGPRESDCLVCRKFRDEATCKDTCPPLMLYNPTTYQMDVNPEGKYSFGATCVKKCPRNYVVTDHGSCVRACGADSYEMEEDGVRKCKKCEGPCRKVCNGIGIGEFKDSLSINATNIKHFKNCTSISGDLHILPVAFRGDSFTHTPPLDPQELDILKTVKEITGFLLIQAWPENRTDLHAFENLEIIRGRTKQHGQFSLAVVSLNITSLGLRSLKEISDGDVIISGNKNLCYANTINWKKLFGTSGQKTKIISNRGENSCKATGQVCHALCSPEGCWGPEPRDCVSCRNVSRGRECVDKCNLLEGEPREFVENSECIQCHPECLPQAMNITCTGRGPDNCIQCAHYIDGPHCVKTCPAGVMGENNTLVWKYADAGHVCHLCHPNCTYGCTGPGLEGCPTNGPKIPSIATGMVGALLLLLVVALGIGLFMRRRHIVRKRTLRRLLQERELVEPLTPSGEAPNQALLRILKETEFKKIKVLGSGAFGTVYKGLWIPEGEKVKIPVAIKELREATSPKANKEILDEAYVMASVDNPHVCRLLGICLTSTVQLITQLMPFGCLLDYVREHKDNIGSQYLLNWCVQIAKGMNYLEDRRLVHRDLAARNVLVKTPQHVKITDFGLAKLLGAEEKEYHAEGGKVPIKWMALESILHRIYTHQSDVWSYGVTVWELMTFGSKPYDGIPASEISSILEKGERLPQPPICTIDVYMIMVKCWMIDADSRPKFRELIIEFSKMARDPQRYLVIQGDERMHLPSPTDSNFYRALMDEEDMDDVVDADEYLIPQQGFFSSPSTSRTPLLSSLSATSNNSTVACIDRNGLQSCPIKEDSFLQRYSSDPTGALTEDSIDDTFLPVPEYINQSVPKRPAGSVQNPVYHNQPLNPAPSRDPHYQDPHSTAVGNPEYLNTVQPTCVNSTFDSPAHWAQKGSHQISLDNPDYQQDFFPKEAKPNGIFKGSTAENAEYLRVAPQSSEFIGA
structure (smiles),measurement,setting,value
"Cc1cn(-c2cc(C(=O)Nc3ccc(C)c(CNc4cnc5[nH]c(C(=O)O)cc5c4)c3)cc(C(F)(F)F)c2)cn1 [OR0653, 5-{2-Methyl-5-[3-(4-methyl-imidazol-1-yl)-5-trifluoromethyl-benzoylamino]-benzylamino}-1H-pyrrolo[2,3-b]pyridine-2-carboxylic acid]",inhibition at 0.1 µM,BRAF,< 50%
same,inhibition at 0.1 µM,EGFR (ErbB1),≥ 50%
same,inhibition at 0.1 µM,EGFR (ErbB1) T790M L858R,≥ 50%
same,inhibition at 0.1 µM,FGFR2,< 50%
same,inhibition at 0.1 µM,KDR (VEGFR2),≥ 50%
same,inhibition at 0.1 µM,PDGFRA (PDGFR alpha),≥ 50%
same,inhibition at 0.1 µM,SRC,≥ 50%
same,inhibition at 10 µM,ABL,≥ 50%
same,inhibition at 10 µM,ABL T315I,< 50%
same,inhibition at 0.1 µM,FGFR1,< 50%
same,inhibition at 0.1 µM,VEGFR1,≥ 50%
same,inhibition at 0.1 µM,PDGFRB,< 50%
same,EC50,"A549 cell line; A549, 72 hr, MTT",≥ 1000 nM
same,EC50,"BxPC-3 cell line; BxPC-3, 72 hr, MTT",≥ 1000 nM
"CC(=O)c1cc2cc(NCc3cc(NC(=O)c4ccc(CN5CCN(C)CC5)c(C(F)(F)F)c4)ccc3C)cnc2[nH]1 [OR0720, N-{3-[(2-Acetyl-1H-pyrrolo[2,3-b]pyridin-5-ylamino)-methyl]-4-methyl-phenyl}-4-(4-methyl-piperazin-1-ylmethyl)-3-trifluoromethyl-benzamide]",inhibition at 0.1 µM,BRAF,≥ 50%
same,inhibition at 0.1 µM,EGFR (ErbB1),≥ 50%
same,inhibition at 0.1 µM,EGFR (ErbB1) T790M L858R,≥ 50%
same,inhibition at 0.1 µM,FGFR2,≥ 50%
same,inhibition at 0.1 µM,KDR (VEGFR2),≥ 50%
same,inhibition at 0.1 µM,PDGFRA (PDGFR alpha),≥ 50%
same,inhibition at 0.1 µM,SRC,≥ 50%
same,EC50,"A549 cell line; A549, 72 h",≤ 100 nM
same,EC50,HepG2 cell line,≤ 100 nM
same,EC50,HuCCT1 cell line,100 to 1000 nM
same,EC50,HuH6 Clone 5 cell line,100 to 1000 nM
same,EC50,HuH7 cell line,100 to 1000 nM
same,EC50,HT29 cell line,≤ 100 nM
same,EC50,"BxPC-3 cell line; BXPC-3, 72 h",≤ 100 nM
same,EC50,H1975 cell line,100 to 1000 nM
same,EC50,HUVEC,≤ 100 nM
same,EC50,PC3 cell line,≤ 100 nM
same,EC50,Caki-2,100 to 1000 nM
same,EC50,MDA-MB-231 cell line,≤ 100 nM
same,EC50,HeLa cell line,100 to 1000 nM
same,EC50,HRMEC cells,≤ 100 nM
same,tumor growth in xenografted mice bearing human hepatocellular carcinoma tumors,HepG2 cells,significantly induced a decrease of tumor growth
same,Anti-tumor activity (Tumor Growth Inhibition—TGI),"HepG2 cells; mice, HepG2 xenograft, end of study vs vehicle",66%*
